Source: the Kinase Knowledgebase extract (Sharma et al. 2016)
pIC50: −log10 of the molar value.

Target: MAPK14 (human) (UniProt Q16539)
Assay: Inhibition of MAPK14 Kinase Activity

Sequence of MAPK14 (human) (Q16539 whole entry, looked up): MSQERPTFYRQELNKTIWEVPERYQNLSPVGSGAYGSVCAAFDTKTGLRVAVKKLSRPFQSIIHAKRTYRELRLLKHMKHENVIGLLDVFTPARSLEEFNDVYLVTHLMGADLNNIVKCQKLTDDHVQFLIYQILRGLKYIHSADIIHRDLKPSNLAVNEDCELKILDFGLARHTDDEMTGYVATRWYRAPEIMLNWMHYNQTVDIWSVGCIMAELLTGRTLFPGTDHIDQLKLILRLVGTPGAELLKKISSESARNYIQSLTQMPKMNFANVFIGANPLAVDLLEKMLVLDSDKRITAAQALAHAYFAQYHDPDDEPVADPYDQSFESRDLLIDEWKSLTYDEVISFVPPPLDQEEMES

pIC50, ≥ 6.00:
CC(C)NC(=O)c1csc(-c2c(-c3ccc(F)cc3)n[nH]c2C2CCN(C(=O)c3cncc(Br)c3)CC2)n1, Cc1ccc(S(=O)(=O)NCCNC(=O)c2csc(-c3sc(C)nc3-c3ccc(F)cc3)n2)cc1, CC(=O)NCC(=O)N1CCC(c2[nH]nc(-c3ccc(F)cc3)c2-c2nc(C(=O)NC(C)C)cs2)CC1, Cc1onc(-c2ccc(Cl)cc2)c1-c1ccn(C(=O)NCCO)n1, CC(C)NC(=O)c1csc(-c2oc(CNC(=O)c3ccc(C(F)(F)F)cc3[N+](=O)[O-])nc2-c2ccc(F)cc2)n1, CC(C)NC(=O)c1csc(-c2oc(CNC(=O)c3cc4cc(Cl)ccc4o3)nc2-c2ccc(F)cc2)n1, Cc1nc(-c2ccc(F)cc2)c(-c2nc(C(=O)NCCc3ccccc3)cs2)s1, CC(C)NC(=O)c1csc(-c2oc(CNC(=O)c3ccc(Cl)cc3Cl)nc2-c2ccc(F)cc2)n1, Cc1ccc([N+](=O)[O-])c(C(=O)NCc2onc(-c3ccc(F)cc3)c2-c2nc(C(=O)NC(C)C)cs2)c1, Cc1nc(-c2ccc(F)cc2)c(-c2nc(C(=O)NCc3cccs3)cs2)s1, CC(=O)Oc1cccc(C(=O)N2CCN(Cc3nc(-c4ccc(F)cc4)c(-c4nc(C(=O)NC(C)C)cs4)o3)CC2)c1, CC(C)NC(=O)c1coc(-c2c(-c3ccc(F)cc3)noc2C2CCNCC2)n1, Cc1cc(C(=O)N2CCN(Cc3nc(-c4ccc(F)cc4)c(-c4nc(C(=O)NC(C)C)cs4)o3)CC2)n[nH]1, CC(C)NC(=O)c1csc(-c2oc(CN3CCN(C(=O)c4c(F)c(F)c(F)c(F)c4F)CC3)nc2-c2ccc(F)cc2)n1, CC(C)NC(=O)c1csc(-c2oc(CN3CCN(C(=O)c4cccc(Cl)c4[N+](=O)[O-])CC3)nc2-c2ccc(F)cc2)n1, CC(C)NC(=O)c1csc(-c2c(-c3ccc(F)cc3)n[nH]c2C2CCN(C(=O)c3ccncc3Cl)CC2)n1, COc1ccc2cc(C(C)C(=O)NCc3nc(-c4ccc(F)cc4)c(-c4nc(C(=O)NC(C)C)cs4)o3)ccc2c1 (configuration not stated), CC(C)NC(=O)c1csc(-c2c(-c3ccc(F)cc3)n[nH]c2C2CCN(C(=O)C(C)O)CC2)n1 (configuration not stated), CC(C)NC(=O)c1csc(-c2oc(CNC(=O)CCc3cccc(C(F)(F)F)c3)nc2-c2ccc(F)cc2)n1, Cc1nc(-c2ccc(F)cc2)c(-c2nc(C(=O)NCc3ccc(F)cc3F)cs2)s1, Cc1onc(-c2ccc(F)cc2Cl)c1-c1ccn(C(=O)NC(C)C)n1, CCN(CC)c1ccc(C(=O)NCc2nc(-c3ccc(F)cc3)c(-c3nc(C(=O)NC(C)C)cs3)o2)cc1, COc1ccccc1CC(=O)NCc1nc(-c2ccc(F)cc2)c(-c2nc(C(=O)NC(C)C)cs2)o1, CC(C)NC(=O)c1csc(-c2oc(CNC(=O)c3ccc(OCc4ccccc4)cc3)nc2-c2ccc(F)cc2)n1, CC(C)NC(=O)c1csc(-c2c(-c3ccc(F)cc3)n[nH]c2C2CCN(C(=O)CCc3nc4ccccc4[nH]3)CC2)n1, CC(C)NC(=O)c1csc(-c2c(-c3ccc(F)cc3)n[nH]c2C2CCN(C(=O)c3ccnc(Cl)c3)CC2)n1, CC(C)NC(=O)c1csc(-c2c(-c3ccc(F)cc3)n[nH]c2C2CCN(C(=O)C(C(C)C)N(C)C(=O)OC(C)(C)C)CC2)n1 (configuration not stated), O=C(NC1CCCC1)c1csc(-c2c(-c3ccc(F)cc3)n[nH]c2C2CCNCC2)n1, CC(C)NC(=O)c1csc(-c2oc(CN3CCN(C(=O)C4CCCN4C(=O)OC(C)(C)C)CC3)nc2-c2ccc(F)cc2)n1 (configuration not stated), CC(C)NC(=O)c1csc(-c2c(-c3ccc(F)cc3)n[nH]c2C2CCN(C(=O)c3cccnc3Cl)CC2)n1, CC(C)NC(=O)c1csc(-c2oc(CN3CCN(C(=O)c4cc(Cl)ccc4O)CC3)nc2-c2ccc(F)cc2)n1, Cc1nc(-c2ccc(F)cc2)c(-c2nc(C(=O)NCCCN3CCOCC3)cs2)s1, COc1cccc(CCNC(=O)c2csc(-c3sc(C)nc3-c3ccc(F)cc3)n2)c1, COCC(C)NC(=O)c1csc(-c2sc(C)nc2-c2ccc(F)cc2)n1 (configuration not stated), Cc1nc(-c2ccc(F)cc2)c(-c2nc(C(=O)NCCCN(C)c3ccccc3)cs2)s1, Cc1nc(-c2ccc(F)cc2)c(-c2nc(C(=O)NCC3CC3)cs2)s1, CC(C)NC(=O)c1csc(-c2oc(CNC(=O)C(Cc3ccccc3)NC(=O)OC(C)(C)C)nc2-c2ccc(F)cc2)n1 (configuration not stated), Cc1nc(-c2ccc(F)cc2)c(-c2nc(C(=O)Nc3cccc(Cl)c3C)cs2)s1, CC(C)NC(=O)c1csc(-c2oc(CNC(=O)CCc3ccccc3O)nc2-c2ccc(F)cc2)n1, CC(C)NC(=O)c1csc(-c2c(-c3ccc(F)cc3)n[nH]c2C2CCN(C(=O)c3cccc4ccccc34)CC2)n1, CC(C)NC(=O)c1csc(-c2c(-c3ccc(F)cc3)n[nH]c2C2CCN(C(=O)Cc3ccccc3O)CC2)n1, Cc1nc(-c2ccc(F)cc2)c(-c2nc(C(=O)NCC#N)cs2)s1, O=C(NC1CCCC1)c1csc(-c2c(-c3ccc(F)cc3)ncn2C2CCNCC2)n1, CNC(=O)c1csc(-c2c(-c3ccc(F)cc3)n[nH]c2C2CCNCC2)n1, CC(C)NC(=O)c1csc(-c2c(-c3ccc(F)cc3)noc2CNCCCN2CCCC2=O)n1, CC(C)NC(=O)c1csc(-c2oc(CNC(=O)c3cc(Cl)ccc3[N+](=O)[O-])nc2-c2ccc(F)cc2)n1, Cc1nc(-c2ccc(F)cc2)c(-c2nc(C(=O)NCCOc3ccccc3)cs2)s1, CC(C)NC(=O)c1csc(-c2oc(CN3CCN(C(=O)C(C)(C)C)CC3)nc2-c2ccc(F)cc2)n1, COc1cc(C(=O)N2CCN(Cc3nc(-c4ccc(F)cc4)c(-c4nc(C(=O)NC(C)C)cs4)o3)CC2)cc(OC)c1O, CC(=O)N1CCC(n2cnc(-c3ccc(F)cc3)c2-c2nc(C(=O)NC(C)C)cs2)CC1, CC(C)NC(=O)c1csc(-c2oc(CN(C)C)nc2-c2ccc(F)cc2)n1, Cc1onc(-c2ccc(Cl)cc2)c1-c1ccn(C(=O)NC2CCCCC2)n1, COc1ccc(CNC(=O)c2csc(-c3sc(C)nc3-c3ccc(F)cc3)n2)cc1O, O=C(NC1CCC1)c1csc(-c2c(-c3ccc(F)cc3)n[nH]c2C2CCNCC2)n1, COc1cc(OC)c(C(=O)NCc2nc(-c3ccc(F)cc3)c(-c3nc(C(=O)NC(C)C)cs3)o2)c(OC)c1, CC(C)NC(=O)c1csc(-c2oc(CN3CCNCC3)nc2-c2ccc(F)cc2)n1, CC(C)NC(=O)c1csc(-c2c(-c3ccc(F)cc3)noc2CNC(=O)Cc2cccc(O)c2)n1, Cc1cccc(CNC(=O)c2csc(-c3sc(C)nc3-c3ccc(F)cc3)n2)c1, Cc1nc(-c2ccc(F)cc2)c(-c2nc(C(=O)NCCc3c[nH]c4ccccc34)cs2)s1, CCN(CC)c1ccc(C(=O)N2CCN(Cc3nc(-c4ccc(F)cc4)c(-c4nc(C(=O)NC(C)C)cs4)o3)CC2)cc1, CC(C)NC(=O)c1csc(-c2[nH]c(CN(C)C)nc2-c2ccc(F)cc2)n1, COc1cccc(CNC(=O)c2csc(-c3sc(C)nc3-c3ccc(F)cc3)n2)c1, CC(C)NC(=O)c1csc(-c2oc(CN3CCN(C(=O)c4cc([N+](=O)[O-])ccc4Cl)CC3)nc2-c2ccc(F)cc2)n1, CC(C)NC(=O)c1csc(-c2c(-c3ccc(F)cc3)ncn2C)n1, CC(C)NC(=O)c1csc(-c2oc(CNC(=O)c3ccccc3C(F)(F)F)nc2-c2ccc(F)cc2)n1, Cc1nc(-c2ccc(F)cc2)c(-c2nc(C(=O)NCC(C)c3ccccc3)cs2)s1 (configuration not stated), CC(C)NC(=O)c1csc(-c2oc(CNC(=O)c3cc(O)c(O)c(O)c3)nc2-c2ccc(F)cc2)n1, CC(C)NC(=O)c1csc(-c2oc(CN3CCN(C(=O)c4ncc[nH]4)CC3)nc2-c2ccc(F)cc2)n1, CC(C)NC(=O)c1csc(-c2oc(CNC(=O)c3cc(F)c(F)cc3[N+](=O)[O-])nc2-c2ccc(F)cc2)n1, CC(C)NC(=O)c1csc(-c2oc(CN3CCN(C(=O)c4ccc5cccc(O)c5n4)CC3)nc2-c2ccc(F)cc2)n1, CC1=C(CCC(=O)N2CCN(Cc3nc(-c4ccc(F)cc4)c(-c4nc(C(=O)NC(C)C)cs4)o3)CC2)C=CCO1, Cc1nc(-c2ccc(F)cc2)c(-c2nc(C(=O)NC3CCCC3)cs2)s1, Cc1nc(-c2ccc(F)cc2)c(-c2nc(C(=O)NC3CCCCC3C)cs2)s1 (configuration not stated), O=C(NC1CC1)c1csc(-c2c(-c3ccc(F)cc3)n[nH]c2C2CCNCC2)n1, COc1ccc(-c2ccccc2)cc1NCc1onc(-c2ccc(F)cc2)c1-c1nc(C(=O)NC(C)C)cs1, CC(C)NC(=O)c1csc(-c2oc(CNC(=O)C(F)(F)F)nc2-c2ccc(F)cc2)n1, Cc1nc(-c2ccc(F)cc2)c(-c2nc(C(=O)N3CCN(c4ccccc4C#N)CC3)cs2)s1, CC(C)C(CO)NC(=O)c1csc(-c2c(-c3ccc(F)cc3)n[nH]c2C2CCNCC2)n1 (configuration not stated), CC(=O)Nc1ccc(NC(=O)c2csc(-c3sc(C)nc3-c3ccc(F)cc3)n2)cc1, Cc1nc(-c2ccc(F)cc2)c(-c2nc(C(=O)Nc3ccc(C(F)(F)F)cc3C(F)(F)F)cs2)s1, CC(C)NC(=O)c1csc(-c2c(-c3ccc(F)cc3)ncn2C2CCNCC2)n1, CC(C)NC(=O)c1csc(-c2c(-c3ccc(F)cc3)noc2CNC(=O)c2ccncc2Cl)n1, Cc1nc(-c2ccc(F)cc2)c(-c2nc(C(=O)NCc3ccc(Cl)cc3)cs2)s1, CCC(C)NC(=O)n1ccc(-c2c(-c3ccc(Cl)cc3)noc2C)n1 (configuration not stated), COc1ccc(Br)c(C(=O)NCc2nc(-c3ccc(F)cc3)c(-c3nc(C(=O)NC(C)C)cs3)o2)c1, Cc1nc(-c2ccc(F)cc2)c(-c2nc(C(=O)NCc3cccc(C(F)(F)F)c3)cs2)s1, CC(C)NC(=O)c1csc(-c2c(-c3ccc(F)cc3)n[nH]c2C2CCN(C(=O)c3cc(O)c(O)c(O)c3)CC2)n1
